The results in this text go back to patent US20240246968A1, “SMALL MOLECULE INHIBITORS OF KRAS G12C MUTANT” (Merck Sharp & Dohme LLC, priority 2021, published 2024).

The structures appear in SMILES notation.

Assay [1] addresses biotinylated KRAS G12C protein (GMP-PNP loaded) and GST-tagged Ras binding domain of c-RAF (Homo sapiens, UniProt P01116, C118S/C51S/C80L/G12C). The experiment in a line: RAS:RAF-RBD binding assay (TR-FRET). As to conditions: 30-minute incubation with KRAS G12C, then RAF-RBD 60 minute. The format is biochemical. In general terms: TR-FRET usually uses a lanthanide donor and a delayed reading to cut background.

The target in assay [2] is Gppcp-bound recombinant K-Ras4B G12C mutant protein (amino acids 1-169, C51S/C80L/C118S) (Homo sapiens, UniProt P01116, C118S/C51S/C80L/G12C). Description: KRASG12C binding assay (LC-MS, compound binding rate). Particulars: test compound final concentration 0.5 μM, 25° C., 1 hour. The method, boiled down:
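Gppcp-bound K-Ras4B G12C (1-169; C51S/C80L/C118S), 50 nM in TBS with 0.1 mM TCEP, 0.25 mM MgCl2, 50 μM Gppcp, exposed to compound at 0.5 μM final for 1 h at 25 °C. Quenched with formic acid and analysed by intact-protein ESI LC-MS. Binding rate is the mono-adduct signal over total KRAS signal; graded A (≥80%) to E (<20%).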

The target in assay [3] is T1, interaction between recombinant K-Ras4B G12C mutant protein and cRAF RAS-binding domain (cRAF-RBD) (Homo sapiens, UniProt P01116, G12C).
T1 construct: made in house; host or cells: E. coli
Description: Inhibitory activity on interaction between KRAS G12C and cRAF (Alpha technology). Type of assay: biochemical. Particulars: GMPPNP-bound KRAS G12C incubated with compound at 25° C. for 1 hour, then cRAF-RBD; Alpha signal. The method, boiled down: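 GMPPNP-loaded His-tagged KRAS G12C (aa 1-169, E. coli) preincubated with compound 1 h at 25° C in Tris pH 7.5, 100 mM NaCl, 1 mM MgCl2, TCEP, 0.1% Tween 20; cRAF-RBD (aa 50-132) added, 1.5 h RT, Alpha signal read. DMSO = 0%, GDP-bound KRAS = 100% inhibition; IC50 from dose titration fit.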

In assay [4] the test system is MIA PaCa-2 cells. Description: Growth inhibition activity on KRAS-G12C mutant cell line (MIA PaCa-2), CellTiter-Glo 3D. Type of assay: cell-based, human. Particulars: Homo sapiens, MIA PaCa-2, 72 h, MIA PaCa-2, 3-day culture with compound. The gist of the method: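 Cells in RPMI1640 with 10% FBS were seeded in U-bottom plates and cultured 1 day at 37 °C, 5% CO2, then exposed to compound (0.2% DMSO final) for 3 more days. Viability read by CellTiter-Glo 3D luminescence; IC50 from growth inhibition relative to untreated wells.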

As usually defined, the IC50 is the concentration that gives 50% inhibition. In assay [1], `COc1c(-c2cccc3c2ccn3C(=O)c2cc(F)c(NC(=O)/C=C/CN[C@H]3CCOC3)c(F)c2)c(C(F)(F)F)cc2c1nc(C)n2C` (single isomer, unassigned) [Example 116, mono(2,2,2-trifluoroacetate)] registered an IC50 of 14.8 nM.
`COc1c(-c2cccn3c(C(=O)c4cc(F)c(NC(=O)/C=C/CN[C@H]5CC[C@H](OC)CC5)c(F)c4)ccc23)c(C(F)(F)F)cc2c1cnn2C` (single isomer, unassigned) [Example 117, (E)-N-(2,6-difluoro-4-(8-(4-methoxy-1-methyl-6-(trifluoromethyl)-1H-indazol-5-yl)indolizine-3-carbonyl)phenyl)-4-(((1r,4r)-4-methoxycyclohexyl)amino)but-2-enamide] showed an IC50 in assay [1] of 56.5 nM.
Regarding `CCCc1cc(C(=O)c2cc(F)c(NC(=O)/C=C/CN[C@H]3CC[C@H](OC)CC3)c(F)c2)n2cccc(-c3c(C)cc4c(nc(C)n4C)c3Cl)c12` [Example 97, (E)-N-(4-(8-(4-chloro-1,2,6-trimethyl-1H-benzo[d]imidazol-5-yl)-1-propylindolizine-3-carbonyl)-2,6-difluorophenyl)-4-(((1r,4r)-4-methoxycyclohexyl)amino)but-2-enamide], the binding rate entry in assay [2] is recorded as “A (A binding rate of 80% or more is rated “A”)”. Moreover, the values for the IC50 in assay [3] and in assay [4] were 44 nM and 320 nM, respectively.
With `Cc1cc2c(nc([C@@H](C)O)n2C)c(Cl)c1-c1cccn2c(C(=O)c3cc(F)c(NC(=O)/C=C/CNC(C)(C)C)c(F)c3)ccc12` [Example 98, (R,E)-4-(tert-butylamino)-N-(4-(8-(4-chloro-2-(1-hydroxyethyl)-1,6-dimethyl-1H-benzo[d]imidazol-5-yl)indolizine-3-carbonyl)-2,6-difluorophenyl)but-2-enamide], in assay [2], the binding rate result is recorded as “A (A binding rate of 80% or more is rated “A”)”. Also, the IC50 in assay [3] worked out at 41 nM; in assay [4], 42 nM.
Taken in the same sequence, the figures for `CCc1nc2c(-c3cc4nc(C)n(C)c4cc3C(F)(F)F)cccn2c1C(=O)c1cc(F)c(NC(=O)/C=C/CN[C@H]2CC[C@H](OC)CC2)c(F)c1` [Example 99, (E)-N-(4-(8-(1,2-dimethyl-6-(trifluoromethyl)-1H-benzo[d]imidazol-5-yl)-2-ethylimidazo[1,2-a]pyridine-3-carbonyl)-2,6-difluorophenyl)-4-(((1r,4r)-4-methoxycyclohexyl)amino)but-2-enamide] were “A (A binding rate of 80% or more is rated “A”)”, 170 nM and 170 nM.
For the compound `C#Cc1cc(C(=O)c2cc(F)c(NC(=O)/C=C/CN[C@H]3CC[C@H](OC)CC3)c(F)c2)n2cccc(-c3c(C)cc4c(nc(C)n4C)c3Cl)c12` [Example 100], in assay [2], the binding rate result is on record as “A (A binding rate of 80% or more is rated “A”)”. The IC50 amounted to 71 nM in assay [3] and 96 nM in assay [4].
As for `CO[C@H]1CC[C@H](NC/C=C/C(=O)Nc2c(F)cc(C(=O)c3cc(-c4cnn(C)c4)c4c(-c5c(C)cc6c(nc(C)n6C)c5Cl)cccn34)cc2F)CC1` [Example 101, (E)-N-(4-(8-(4-chloro-1,2,6-trimethyl-1H-benzo[d]imidazol-5-yl)-1-(1-methyl-1H-pyrazol-4-yl)indolizine-3-carbonyl)-2,6-difluorophenyl)-4-(((1r,4r)-4-methoxycyclohexyl)amino)but-2-enamide], in assay [2], the binding rate entry is on record as “A (A binding rate of 80% or more is rated “A”)”. Also, the IC50 in assay [3] is 54 nM; in assay [4], 93 nM.
Take `COCc1cc(C(=O)c2cc(F)c(NC(=O)/C=C/CN[C@H]3CC[C@H](OC)CC3)c(F)c2)n2cccc(-c3c(C)cc4c(nc(C)n4C)c3Cl)c12` [Example 103, (E)-N-(4-(8-(4-chloro-1,2,6-trimethyl-1H-benzo[d]imidazol-5-yl)-1-(methoxymethyl)indolizine-3-carbonyl)-2,6-difluorophenyl)-4-(((1r,4r)-4-methoxycyclohexyl)amino)but-2-enamide]: the binding rate entry in assay [2] is reported as “A (A binding rate of 80% or more is rated “A”)”. Besides, the figures for the IC50 in assay [3] and in assay [4] were 32 nM and 74.8 nM, respectively.
On to `CO[C@H]1CC[C@H](NC/C=C/C(=O)Nc2c(F)cc(C(=O)c3ccc4c(-c5c(C(F)(F)F)cc6c(nc(C)n6C)c5Cl)cccn34)c(F)c2F)CC1` [Example 104, (E)-N-(4-(8(4-chloro-1,2-dimethyl-6-(trifluoromethyl)-1H-benzo[d]imidazol-5-yl)indolizine-3-carbonyl)-2,3,6-trifluorophenyl)-4-(((1r,4r)-4-methoxycyclohexyl)amino)but-2-enamide], for which, in assay [2], the binding rate entry is recorded as “A (A binding rate of 80% or more is rated “A”)”. Besides, the concentration for half-maximal inhibition (IC50) in assay [3] was 78.9 nM; in assay [4], 90.4 nM.
For `CO[C@H]1CC[C@H](NC/C=C/C(=O)Nc2c(F)cc(C(=O)c3cc(C(=O)N(C)C)c4c(-c5c(C)cc6c(nc(C)n6C)c5Cl)cccn34)cc2F)CC1` [Example 106, 8-(4-chloro-1,2,6-trimethyl-1H-benzo[d]imidazol-5-yl)-3-(3,5-difluoro-4-((E)-4-(((1r,4r)-4-methoxycyclohexyl)amino)but-2-enamido)benzol)-N,N-dimethylindolizine-1-carboxamide], the binding rate result in assay [2] was “A (A binding rate of 80% or more is rated “A”)”. Also, the IC50 in assay [3] is 31.1 nM; in assay [4], 134 nM.
`CO[C@H]1CC[C@H](NC/C=C/C(=O)Nc2c(F)cc(C(=O)c3cc(C(N)=O)c4c(-c5c(C)cc6c(nc(C)n6C)c5Cl)cccn34)cc2F)CC1` [Example 107, 8-(4-chloro-1,2,6-trimethyl-1H-benzo[d]imidazol-5-yl)-3-(3,5-difluoro-4-((E)-4-(((1r,4r)-4-methoxycyclohexyl)amino)but-2-enamido)benzoyl)indolizine-1-carboxamide]: in assay [2], the binding rate result is recorded as “A (A binding rate of 80% or more is rated “A”)”. In addition, the IC50 amounted to 37.6 nM in assay [3] and 569 nM in assay [4].
Taken in the same sequence, the figures for `CO[C@H]1CC[C@H](NC/C=C/C(=O)Nc2c(F)cc(C(=O)c3cc(CC#N)c4c(-c5c(C)cc6c(nc(C)n6C)c5Cl)cccn34)cc2F)CC1` [Example 108, (E)-N-(4-(8-(4-chloro-1,2,6-trimethyl-1H-benzo[d]imidazol-5-yl)-1-(cyanomethyl)indolizine-3-carbonyl)-2,6-difluorophenyl)-4-(((1r,4r)-4-methoxycyclohexyl)amino)but-2-enamide] were “A (A binding rate of 80% or more is rated “A”)”, 40.5 nM and 77.7 nM.
In the same order, the values of `CO[C@H]1CC[C@H](NC/C=C/C(=O)Nc2c(F)cc(C(=O)c3ccc4c(-c5cc6[nH]c(=O)n(C)c6cc5C(F)(F)F)cccn34)cc2F)CC1` [Example 110, (E)-N-(2,6-difluoro-4-(8(1-methyl-2-oxo-6-(trifluoromethyl)-2,3-dihydro-1H-benzo[d]imidazol-5-yl)indolizine-3-carbonyl)phenyl)-4-(((1r,4r)-4-methoxycyclohexyl)amino)but-2-enamide] are “A (A binding rate of 80% or more is rated “A”)”, 80.7 nM and 182 nM.
Regarding `COCCn1c(C)nc2c(F)c(-c3cccn4c(C(=O)c5cc(F)c(NC(=O)/C=C/CNC6(C)CC6)c(F)c5)ccc34)c(OC)cc21` [Example 113, (E)-N-(2,6-difluoro-4-(8-(4-fluoro-6-methoxy-1-(2-methoxyethyl)-2-methyl-1H-benzo[d]imidazol-5-yl)indolizine-3-carbonyl)phenyl)-4-((1-methylcyclopropyl)amino)but-2-enamide], the binding rate result in assay [2] is reported as “A (A binding rate of 80% or more is rated “A”)”. Besides, the IC50 in assay [3] stood at 44.9 nM; in assay [4] it was 55.9 nM.
In the same order, the values of `COc1cc2c(c(F)c1-c1cccn3c(C(=O)c4cc(F)c(NC(=O)/C=C/CNC5(C)CC5)c(F)c4)ccc13)c(=O)ncn2C` [Example 114] are “A (A binding rate of 80% or more is rated “A”)”, 18.9 nM and 1070 nM.
For `CO[C@H]1CC[C@H](NC/C=C/C(=O)Nc2c(F)cc(C(=O)c3ccc4c(-c5cc6nc(C)n(C)c6cc5C(F)(F)F)nccn34)cc2F)CC1` [Example 115, (E)-N-(4-(1-(1,2-dimethyl-6-(trifluoromethyl)-1H-benzo[d]imidazol-5-yl)pyrrolo[1,2-a]pyrazine-6-carbonyl)-2,6-difluorophenyl)-4-(((1r,4r)-4-methoxycyclohexyl)amino)but-2-enamide], in assay [2], the binding rate entry was “B (a binding rate of 60% or more and less than 80% is rated “B”)”. The IC50 was determined as 452 nM in assay [3] and 248 nM in assay [4].
